{
  "source": "ChEMBL document CHEMBL5233272",
  "about": "“Nimbolide, a Neem Limonoid, Is a Promising Candidate for the Anticancer Drug Arsenal” (J Med Chem, 2021)",
  "key": {"[1]": {"experiment": "Acute toxicity in iv dosed Swiss albino mouse assessed as lethal dose", "type": "organism-based", "conditions": "in vivo"}, "[2]": {"experiment": "Acute toxicity in ip dosed Syrian golden hamster assessed as lethal dose", "type": "organism-based, Mesocricetus auratus", "conditions": "in vivo"}, "[3]": {"experiment": "Drug concentration in athymic Nu/Nu mouse tumor xenografted with human HCT-116 cells transfected with luciferase at 20 mg/kg, ip administered daily for 10 days by HPLC analysis", "type": "ADME, organism-based, Neoplasm", "conditions": "time 10 day, read-out: Drug uptake"}, "[4]": {"experiment": "Cmax in mouse at 3 mg/kg, po measured after 2 hrs by LC-MS/MS analysis", "type": "ADME, organism-based", "set-up": "dose 3 mg/kg, time 2 hrs, route po", "conditions": "in vivo"}, "[5]": {"experiment": "Drug concentration in athymic Nu/Nu mouse plasma xenografted with human HCT-116 cells transfected with luciferase at 20 mg/kg, ip administered daily for 10 days by HPLC analysis", "type": "ADME, organism-based", "conditions": "time 10 day, read-out: Drug uptake"}, "[6]": {"experiment": "Acute toxicity in ip dosed rat assessed as lethal dose", "type": "organism-based", "conditions": "in vivo"}, "[7]": {"experiment": "Oral bioavailability in Sprague-Dawley rat at 10 mg/kg measured upto 72 hrs", "type": "ADME, organism-based", "conditions": "in vivo"}, "[8]": {"experiment": "Drug concentration in athymic Nu/Nu mouse tumor xenografted with human HCT-116 cells transfected with luciferase at 5 mg/kg, ip administered daily for 10 days by HPLC analysis", "type": "ADME, organism-based, Neoplasm", "conditions": "time 10 day, read-out: Drug uptake"}, "[9]": {"experiment": "Oral bioavailability in Sprague-Dawley rat at 50 mg/kg measured upto 72 hrs", "type": "ADME, organism-based", "conditions": "in vivo"}, "[10]": {"experiment": "Oral bioavailability in Sprague-Dawley rat at 30 mg/kg measured upto 72 hrs", "type": "ADME, organism-based", "conditions": "in vivo"}, "[11]": {"experiment": "Acute toxicity in ip dosed Swiss albino mouse assessed as lethal dose", "type": "organism-based", "conditions": "in vivo"}, "[12]": {"experiment": "Drug concentration in athymic Nu/Nu mouse plasma xenografted with human HCT-116 cells transfected with luciferase at 5 mg/kg, ip administered daily for 10 days by HPLC analysis", "type": "ADME, organism-based", "conditions": "time 10 day, read-out: Drug uptake"}},
  "data": [
    {"smiles": "COC(=O)C[C@H]1[C@]2(C)C3=C(C)[C@H](c4ccoc4)C[C@H]3O[C@@H]2[C@@H]2OC(=O)[C@]3(C)C=CC(=O)[C@@]1(C)[C@@H]23", "note": "[NIMBOLIDE]", "values": [
      {"measurement": "LD50", "setting": "[1]", "value": 24, "unit": "mg/kg"},
      {"measurement": "LD50", "setting": "[2]", "value": 500, "unit": "mg/kg"},
      {"measurement": "concentration at 240 h", "setting": "[3]", "value": 868, "unit": "ng/g"},
      {"measurement": "Cmax", "setting": "[4]", "value": 780, "unit": "nM"},
      {"measurement": "concentration at 240 h", "setting": "[5]", "value": 409, "unit": "ng/mL"},
      {"measurement": "LD50", "setting": "[6]", "value": 600, "unit": "mg/kg"},
      {"measurement": "bioavailability", "setting": "[7]", "value": 2.72, "unit": "%"},
      {"measurement": "concentration at 240 h", "setting": "[8]", "value": 345, "unit": "ng/g"},
      {"measurement": "bioavailability", "setting": "[9]", "value": 3.06, "unit": "%"},
      {"measurement": "bioavailability", "setting": "[10]", "value": 1.76, "unit": "%"},
      {"measurement": "LD50", "setting": "[11]", "value": 225, "unit": "mg/kg"},
      {"measurement": "concentration at 240 h", "setting": "[12]", "value": 222, "unit": "ng/mL"}
    ]}
  ]
}
